Patent US20070218475A1, “Efficient drug screening for protein targets” (priority 2005, published 2007)
Read-outs that look alike come from different tables or passages of the source.

How the values were obtained:
Smo [1] = molecular target: T1, Smo (Mus musculus, UniProt P56726); assay: Fluorescence (BODIPY-cyclopamine) binding assay, Smo-expressing Cos-1 cells
T1 construct: expressed in transfected cells; host or cells: Cos-1
Procedure: (§1) For flow cytometry experiments, the cells were then trypsinized, collected by centrifugation, resuspended in phenol red-free DMEM containing 0.5% bovine calf serum, and analyzed for green fluorescence (FACScan, Beckton Dickinson). […] Curve fitting analysis was performed with Kaleidograph (Synergy Software).

SmoΔCRD = molecular target: T2, SmoΔCRD (Mus musculus, UniProt P56726, DEL68-182); assay: Fluorescence (BODIPY-cyclopamine) binding assay, Cos-1 cells expressing SmoΔCRD; settings: 150 nM KAAD-cyclopamine
T2 construct: expressed in transfected cells; host or cells: Cos-1
Source text: (§2) Preparation of Smo fusion proteins and deletion mutants: Both Smo-Myc3 and SmoA1-Myc3 are C-terminally fused to three consecutive Myc epitopes. […] Smo-GFP is comprised of green fluorescent protein fused to the C-terminus of Smo, and the fluorescent proteins in SmoA1-YFP, and SmoA1-GFP are similarly fused to the C-terminus of SmoA1. All constructs were generated by PCR and verified by DNA sequencing.
as §1

SmoΔCT = molecular target: T3, SmoΔCT (Mus musculus, UniProt P56726); assay: Fluorescence (BODIPY-cyclopamine) binding assay, Cos-1 cells expressing SmoΔCT; settings: 150 nM KAAD-cyclopamine
T3 construct: expressed in transfected cells; host or cells: Cos-1
T3 sequence (P56726 33-555 limits assumed): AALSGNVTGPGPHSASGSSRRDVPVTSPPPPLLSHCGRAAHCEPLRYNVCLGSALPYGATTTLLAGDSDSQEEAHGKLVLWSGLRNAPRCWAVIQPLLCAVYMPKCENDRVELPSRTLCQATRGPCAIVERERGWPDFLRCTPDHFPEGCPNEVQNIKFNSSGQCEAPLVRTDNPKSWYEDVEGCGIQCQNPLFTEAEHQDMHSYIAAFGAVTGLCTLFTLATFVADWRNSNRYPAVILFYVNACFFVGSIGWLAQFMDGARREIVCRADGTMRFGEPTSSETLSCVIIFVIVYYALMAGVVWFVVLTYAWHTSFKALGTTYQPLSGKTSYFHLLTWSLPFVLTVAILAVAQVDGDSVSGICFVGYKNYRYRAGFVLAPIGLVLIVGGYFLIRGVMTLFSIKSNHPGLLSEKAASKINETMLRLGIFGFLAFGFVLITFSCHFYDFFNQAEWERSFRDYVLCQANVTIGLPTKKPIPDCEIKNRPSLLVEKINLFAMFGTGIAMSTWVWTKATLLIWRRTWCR
Source text: as §2, §1

Smo [2] = molecular target: T1, Smo; assay: Photoaffinity labeling of Smo with 125I-labeled PA-cyclopamine; format: binding
SmoA1-GFP = molecular target: T4, SmoA1-GFP (Mus musculus, UniProt P56726, W539L); assay: Localization study of SmoA1-GFP in C3H/10T1/2 cells; format: cell-based
T4 construct: expressed in transfected cells; host or cells: C3H/10T1/2
Procedure: Localization studies of Smo and SmoA1 proteins: C3H/10T1/2 cells (ATCC) were cultured in DMEM containing 10% fetal bovine serum, 0.5 μg/ml ZnSO4 and β-mercaptoethanol (3.5 μL/500 ml DMEM) on glass coverslips (Bioptechs) in […]. […] To assess SmoA1 subcellular localization, either an ER marker (pECFP-ER; Clontech) or a Golgi marker (pECFP-Golgi; Clontech) was cotransfected with the SmoA1-YFP construct. […] Fluorescent protein illumination, detection and imaging was performed on a Zeiss inverted microscope outfitted with a Xenon light source (Lambda DG4; Sutter instruments), single or dual-pass filters (Chroma Technologies), and a cooled CCD camera (Roper Scientific). Images were acquired and processed with Metamorph software (Universal Images).

SmoA1-Myc3 = molecular target: T5, SmoA1-Myc3 (Mus musculus, UniProt P56726, W539L); assay: Endo H digestion of SmoA1-Myc3 (glycosylation state) in Cos-1 cells; format: cell-based; settings: 5 μM KAAD-cyclopamine
T5 construct: expressed in transfected cells; host or cells: Cos-1
Procedure: Endo H digestion of Smo proteins: Cos-1 cells were cultured in DMEM containing 10% fetal bovine serum in 6-well plates and transfected with Smo-Myc3 or SmoA1-Myc3 expression vectors (1 μg/well). One day after transfection, 5 μM KAAD-cyclopamine (in MeOH, final concentration 0.1%) was added to a well of the SmoA1-Myc3-expressing cells. Two days after transfection, each well of cells washed twice with PBS and lysed with 300 μL of RIPA buffer (50 mM Tris-Cl, pH 7.5, 150 mM NaCl, 1% NP-40, 0.5% sodium deoxycholate, 1 mM EDTA, 1 (μg/ml leupeptin, 1 μg/ml aprotinin, 0.2 mM phenylmethylsulfonyl fluoride). Cell lysates were centrifuged at 20,000×g for 15 minutes at 4° C., and the supernatant was then centrifuged at 100,000×g for 30 minutes. The supernatant of the second centrifugation was then used for glycosidase treatments and/or SDS-PAGE. For glycosidase treatments, 45 μL of cell lysate was denatured in 0.5% SDS, 1% β-mercaptoethanol for 10 minutes at room temperature and then incubated in 50 mM sodium citrate (pH 5.5) and 50 units of endoglycosidase-H (New England Biolabs) at 37° C. overnight. The anti-Myc monoclonal antibody was used for western blotting, following SDS-PAGE separation and protein transfer to nitrocellulose.

Shh signaling [3] = settings: read-out: IC50 in the Shh-LIGHT2 assay, Taipale et al. 2000; cited from earlier work
Shh signaling [4] = assay: Shh-LIGHT2 assay for Hh pathway activation (Gli-dependent luciferase reporter); format: cell-based, mouse
[5] = Keeler and Binns 1965; Berman et al. 2002; cited from earlier work
SmoA1 = molecular target: T6, SmoA1 (Mus musculus, UniProt P56726, W539L); assay: Photoaffinity labeling of SmoA1 with 125I-labeled PA-cyclopamine; format: binding; settings: Cos-1 cells, SmoA1-Myc3
T6 construct: expressed in transfected cells; host or cells: Cos-1
Procedure: Photoaffinity labeling of Smo proteins: Cos-1 cells were cultured in 6-well plates and transfected with Smo-Myc3 or SmoA1-Myc3 expression vectors (1 μg/well). Two days after transfection, each well was incubated with 1 μCi of ^125I-labeled PA-cyclopamine (˜0.5 nM final concentration) in phenol red-free DMEM containing 0.5% bovine calf serum and various concentrations of the indicated compounds for 10 minutes at 37° C. Solvent vehicle alone (MeOH or DMSO) was used as a control in these experiments. PA-cyclopamine was then activated by 254 nm light (80,000 μJ/cm^2; Stratalinker UV-cross-linker) at room temperature. The cells were immediately chilled on ice, removed from the plates by scraping, and then directly lysed and sonicated in SDS-PAGE loading buffer. Total cell lysates were separated by SDS-PAGE and transferred to nitrocellulose for analysis by autoradiography and western blotting with an anti-Myc monoclonal antibody (9E10; Santa Cruz Biotechnology).

T1 sequence (P56726 33-793): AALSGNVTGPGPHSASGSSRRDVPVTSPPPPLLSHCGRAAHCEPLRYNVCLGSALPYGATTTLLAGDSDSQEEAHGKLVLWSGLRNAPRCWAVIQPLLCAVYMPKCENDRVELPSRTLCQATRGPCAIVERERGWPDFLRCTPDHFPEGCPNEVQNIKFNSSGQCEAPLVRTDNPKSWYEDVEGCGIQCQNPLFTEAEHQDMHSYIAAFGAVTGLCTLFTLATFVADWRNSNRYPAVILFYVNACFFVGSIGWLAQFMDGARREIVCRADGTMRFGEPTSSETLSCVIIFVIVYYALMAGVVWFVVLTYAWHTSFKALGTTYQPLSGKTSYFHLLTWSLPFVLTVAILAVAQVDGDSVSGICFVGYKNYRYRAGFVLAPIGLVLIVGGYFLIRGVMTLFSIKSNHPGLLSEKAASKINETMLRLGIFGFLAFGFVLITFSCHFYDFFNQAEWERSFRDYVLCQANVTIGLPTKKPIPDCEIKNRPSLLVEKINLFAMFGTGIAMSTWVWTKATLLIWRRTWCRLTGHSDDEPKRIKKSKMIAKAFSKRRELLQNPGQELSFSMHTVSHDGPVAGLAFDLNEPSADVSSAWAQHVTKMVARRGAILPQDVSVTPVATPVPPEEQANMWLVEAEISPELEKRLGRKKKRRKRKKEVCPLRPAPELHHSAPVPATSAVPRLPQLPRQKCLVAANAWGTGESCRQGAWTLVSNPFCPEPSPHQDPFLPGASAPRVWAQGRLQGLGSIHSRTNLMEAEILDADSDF
T4 sequence (P56726 33-793 W539L): as the sequence (P56726 33-793) above, with W507L counted along it
T2 sequence (P56726 with tags, fused parts or gaps DEL68-182): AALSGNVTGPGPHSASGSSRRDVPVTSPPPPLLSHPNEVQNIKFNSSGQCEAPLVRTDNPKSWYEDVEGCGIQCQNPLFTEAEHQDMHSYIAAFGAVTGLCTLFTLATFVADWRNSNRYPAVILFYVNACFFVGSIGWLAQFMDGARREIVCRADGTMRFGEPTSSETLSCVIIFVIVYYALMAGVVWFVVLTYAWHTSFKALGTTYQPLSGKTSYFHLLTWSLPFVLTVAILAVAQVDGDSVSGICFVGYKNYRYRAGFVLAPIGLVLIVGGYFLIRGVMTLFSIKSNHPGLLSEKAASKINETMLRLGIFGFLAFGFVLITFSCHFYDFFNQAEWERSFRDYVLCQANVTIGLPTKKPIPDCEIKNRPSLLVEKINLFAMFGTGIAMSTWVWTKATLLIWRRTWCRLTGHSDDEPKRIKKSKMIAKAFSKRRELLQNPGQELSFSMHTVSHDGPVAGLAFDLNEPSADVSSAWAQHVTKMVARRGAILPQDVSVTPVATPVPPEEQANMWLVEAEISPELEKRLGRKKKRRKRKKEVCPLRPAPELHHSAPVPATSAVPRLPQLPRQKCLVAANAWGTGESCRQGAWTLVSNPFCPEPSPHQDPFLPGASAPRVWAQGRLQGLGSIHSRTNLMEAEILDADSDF
T5 sequence (P56726 33-793 W539L): as the sequence (P56726 33-793) above, with W507L counted along it
T6 sequence (P56726 33-793 W539L): as the sequence (P56726 33-793) above, with W507L counted along it

Molecule: CC1=C2C[C@H]3[C@@H](CC=C4CC(=O)CC[C@@]43C)[C@@H]2CC[C@]12O[C@@H]1C[C@H](C)CN(CCNC(=O)CCCCCNC(=O)CCc3ccccc3)[C@H]1[C@H]2C [KAAD-cyclopamine]
- inhibition of BODIPY-cyclopamine binding to cells expressing wildtype Smo (Smo [1]; 150 nM KAAD-cyclopamine): inhibited
- Kd (Smo [1]; competition of 5 nM BODIPY-cyclopamine binding, flow cytometry, Cos-1 cells, read-out: apparent dissociation constant (Kd), KAAD-cyclopamine/Smo complex): 23 nM
- inhibition of BODIPY-cyclopamine binding to cells expressing SmoΔCRD (SmoΔCRD): inhibited
- inhibition of BODIPY-cyclopamine binding to cells expressing SmoΔCT (SmoΔCT): inhibited
- competition of PA-cyclopamine labeling of Smo-Myc3 (Smo [2]; 1.5 μM KAAD-cyclopamine, Cos-1 cells): inhibited
- ER-localization of SmoA1-GFP (SmoA1-GFP; 10 μM): reversed
- shift in SmoA1 glycosylation state (endo H) (SmoA1-Myc3): partial conversion of SmoA1 to an endo H-resistant form
- IC50 (Shh signaling [3]): 20 nM

Molecule: CNC1CCC(N(Cc2cccc(-c3ccncc3)c2)C(=O)c2sc3ccccc3c2Cl)CC1 (stereo not drawn) [SAG]
- ER-localization of SmoA1-GFP (SmoA1-GFP; 1 μM): reversed

Molecule: CC1=C2C[C@H]3[C@@H](CC=C4C[C@@H](O)CC[C@@]43C)[C@@H]2CC[C@]12O[C@@H]1C[C@H](C)CN[C@H]1[C@H]2C [cyclopamine, reference compound]
- IC50 (Shh signaling [4]; Mus musculus, Shh Light2, read-out: IC50, inhibition of Shh signaling): 300 nM
- observable toxicity in treated animals [5]: absence of observable toxicity

Molecule: PA-cyclopamine
- IC50 (Shh signaling [4]; Shh-LIGHT2 mouse cultured cell assay, read-out: IC50, inhibition of Shh signaling): 150 nM
- photoaffinity labeling of Smo-Myc3 (two forms) (Smo [2]; Cos-1 cells transiently transfected, upon photoactivation): readily labeled
- photoaffinity labeling of endogenous mouse Smo (Smo [2]; live NTH-3T3 cells, light activation): did not detectably label
- photoaffinity cross-linking of SmoA1 (SmoA1): unable to efficiently cross-link
